Results from paper PMC11642016 (International Journal of Molecular Sciences, 2024).
Like-named read-outs stand apart in the source and are kept apart here.

Legend:
[1] = tested on: PANC-1 cells; assay: CellTiter-Glo luminescent cell viability assay, PANC-1; settings: 72 h, mean ± SD, n = 2; for viability at 2.8 µM / viability at 8.3 µM / viability at 25 µM: Homo sapiens, PANC-1, 72 h; for viability at 2.8 µM: read-out: Cell Viability (% of Control) 2.8 µM, PANC-1; for viability at 8.3 µM: read-out: Cell Viability (% of Control) 8.3 µM, PANC-1; for viability at 25 µM: read-out: Cell Viability (% of Control) 25 µM, PANC-1; for Cell Viability (% of Control) 2.8 µM / Cell Viability (% of Control) 8.3 µM / Cell Viability (% of Control) 25 µM: PANC-1
[2] = tested on: Fadu cells; assay: CellTiter-Glo luminescent cell viability assay, Fadu; settings: 72 h, 72 h, mean ± SD, n = 2; for viability at 2.8 µM / viability at 8.3 µM / viability at 25 µM: Homo sapiens, FaDu; for viability at 2.8 µM: read-out: Cell Viability (% of Control) 2.8 µM, Fadu; for viability at 8.3 µM: read-out: Cell Viability (% of Control) 8.3 µM, Fadu; for viability at 25 µM: read-out: Cell Viability (% of Control) 25 µM, Fadu; for Cell Viability (% of Control) 2.8 µM / Cell Viability (% of Control) 8.3 µM / Cell Viability (% of Control) 25 µM: Fadu

## NCC#Cc1ccc(CN2C(=O)C3=C(CCN(Cc4ccc(-n5cc(-c6cccc(N)c6)nn5)cc4)C3)N3CCN=C23)cc1 [1a]
[1]; first-set screening
  viability at 2.8 µM: 100 ± 5%
  viability at 8.3 µM: 93 ± 7%
  viability at 25 µM: 3 ± 2%
[2]; first-set screening
  viability at 2.8 µM: 106 ± 2%
  viability at 8.3 µM: 99 ± 2%
  viability at 25 µM: 10%

## O=C1C2=C(CCN(Cc3ccc(-n4cc(-[c-]5cccc5)nn4)cc3)C2)N2CCN=C2N1Cc1ccc(C#CCO)cc1.[Fe+2].c1cc[cH-]c1 [1b]
[1]; first-set screening
  Cell Viability (% of Control) 2.8 µM: 92 ± 0 % of Control
  Cell Viability (% of Control) 8.3 µM: 93 ± 3 % of Control
  Cell Viability (% of Control) 25 µM: 95 ± 2 % of Control
[2]; first-set screening
  Cell Viability (% of Control) 2.8 µM: 88 ± 4 % of Control
  Cell Viability (% of Control) 8.3 µM: 83 ± 0 % of Control
  Cell Viability (% of Control) 25 µM: 68 ± 3 % of Control

## O=C1C2=C(CCN(Cc3ccc(-n4cc(-c5ccccc5)nn4)cc3)C2)N2CCN=C2N1Cc1ccc(C#CCO)cc1 [1c]
[1]; first-set screening
  viability at 2.8 µM: 95 ± 3%
  viability at 8.3 µM: 87 ± 2%
  viability at 25 µM: 88 ± 6%
[2]; first-set screening
  viability at 2.8 µM: 79%
  viability at 8.3 µM: 71%
  viability at 25 µM: 64 ± 2%

## Nc1cccc(-c2cn(-c3ccc(CN4CCC5=C(C4)C(=O)N(Cc4ccc(C#CCO)cc4)C4=NCCN45)cc3)nn2)c1 [1d]
[1]; first-set screening
  viability at 2.8 µM: 99 ± 3%
  viability at 8.3 µM: 101 ± 3%
  viability at 25 µM: 100 ± 5%
[2]; first-set screening
  viability at 2.8 µM: 99 ± 9%
  viability at 8.3 µM: 96 ± 7%
  viability at 25 µM: 84 ± 4%

## C=CC(=O)Nc1cccc(-c2cn(-c3ccc(CN4CCC5=C(C4)C(=O)N(Cc4ccc(C#CCN)cc4)C4=NCCN45)cc3)nn2)c1 [1e]
[1]; first-set screening
  viability at 2.8 µM: 101 ± 7%
  viability at 8.3 µM: 91 ± 1%
  viability at 25 µM: 102%
[2]; first-set screening
  viability at 2.8 µM: 96 ± 6%
  viability at 8.3 µM: 59 ± 4%
  viability at 25 µM: 69 ± 2%

## O=C1C2=C(CCN(Cc3ccc(-n4cc(-[c-]5cccc5)nn4)cc3)C2)N2CCN=C2N1Cc1cccc(C#CCO)c1.[Fe+2].c1cc[cH-]c1 [2c]
[1]; first-set screening
  Cell Viability (% of Control) 2.8 µM: 94 ± 2 % of Control
  Cell Viability (% of Control) 8.3 µM: 95 ± 2 % of Control
  Cell Viability (% of Control) 25 µM: 97 ± 2 % of Control
[2]; first-set screening
  Cell Viability (% of Control) 2.8 µM: 79 ± 2 % of Control
  Cell Viability (% of Control) 8.3 µM: 76 ± 4 % of Control
  Cell Viability (% of Control) 25 µM: 65 ± 0 % of Control

## O=C1C2=C(CCN(Cc3ccc(-n4cc(-c5ccccc5)nn4)cc3)C2)N2CCN=C2N1Cc1cccc(C#CCO)c1 [2d]
[1]; first-set screening
  viability at 2.8 µM: 100 ± 8%
  viability at 8.3 µM: 87 ± 1%
  viability at 25 µM: 81%
[2]; first-set screening
  viability at 2.8 µM: 99 ± 7%
  viability at 8.3 µM: 90 ± 10%
  viability at 25 µM: 78 ± 6%

## NCC#Cc1ccc(CN2C(=O)C3=C(CCN(Cc4cccc(-n5cc(-[c-]6cccc6)nn5)c4)C3)N3CCN=C23)cc1.[Fe+2].c1cc[cH-]c1 [3a]
[1]; first-set screening
  Cell Viability (% of Control) 2.8 µM: 101 ± 7 % of Control
  Cell Viability (% of Control) 8.3 µM: 88 ± 0 % of Control
  Cell Viability (% of Control) 25 µM: 0 ± 0 % of Control
[2]; first-set screening
  Cell Viability (% of Control) 2.8 µM: 104 ± 5 % of Control
  Cell Viability (% of Control) 8.3 µM: 100 ± 6 % of Control
  Cell Viability (% of Control) 25 µM: 0 ± 0 % of Control

## O=C1C2=C(CCN(Cc3cccc(-n4cc(-[c-]5cccc5)nn4)c3)C2)N2CCN=C2N1Cc1ccc(C#CCO)cc1.[Fe+2].c1cc[cH-]c1 [3c]
[1]; first-set screening
  Cell Viability (% of Control) 2.8 µM: 100 ± 3 % of Control
  Cell Viability (% of Control) 8.3 µM: 98 ± 1 % of Control
  Cell Viability (% of Control) 25 µM: 98 ± 1 % of Control
[2]; first-set screening
  Cell Viability (% of Control) 2.8 µM: 103 ± 9 % of Control
  Cell Viability (% of Control) 8.3 µM: 99 ± 2 % of Control
  Cell Viability (% of Control) 25 µM: 85 ± 5 % of Control

## O=C1C2=C(CCN(Cc3cccc(-n4cc(-c5ccccc5)nn4)c3)C2)N2CCN=C2N1Cc1ccc(C#CCO)cc1 [3d]
[1]; first-set screening
  viability at 2.8 µM: 85 ± 1%
  viability at 8.3 µM: 55 ± 6%
  viability at 25 µM: 46 ± 7%
[2]; first-set screening
  viability at 2.8 µM: 87 ± 1%
  viability at 8.3 µM: 29 ± 2%
  viability at 25 µM: 23 ± 3%

## NCC#Cc1cccc(CN2C(=O)C3=C(CCN(Cc4cccc(-n5cc(-[c-]6cccc6)nn5)c4)C3)N3CCN=C23)c1.[Fe+2].c1cc[cH-]c1 [4a]
[1]; first-set screening
  Cell Viability (% of Control) 2.8 µM: 91 ± 4 % of Control
  Cell Viability (% of Control) 8.3 µM: 73 ± 9 % of Control
  Cell Viability (% of Control) 25 µM: 0 ± 0 % of Control
[2]; first-set screening
  Cell Viability (% of Control) 2.8 µM: 102 ± 1 % of Control
  Cell Viability (% of Control) 8.3 µM: 77 ± 3 % of Control
  Cell Viability (% of Control) 25 µM: 0 ± 0 % of Control

## O=C1C2=C(CCN(Cc3cccc(-n4cc(-c5ccccc5)nn4)c3)C2)N2CCN=C2N1Cc1cccc(C#CCO)c1 [4d]
[1]; first-set screening
  viability at 2.8 µM: 74 ± 3%
  viability at 8.3 µM: 60 ± 2%
  viability at 25 µM: 53 ± 8%
[2]; first-set screening
  viability at 2.8 µM: 37 ± 1%
  viability at 8.3 µM: 27 ± 3%
  viability at 25 µM: 23 ± 3%

## O=C1C2=C(CCN(Cc3ccc(-n4cc(-c5ccccc5)nn4)cc3)C2)N2CCN=C2N1Cc1ccc(F)cc1 [16f]
[1]; first-set screening
  viability at 2.8 µM: 81 ± 3%
  viability at 8.3 µM: 68 ± 4%
  viability at 25 µM: 60 ± 1%
[2]; first-set screening
  viability at 2.8 µM: 100 ± 1%
  viability at 8.3 µM: 94 ± 1%
  viability at 25 µM: 77 ± 4%

## NCC#Cc1cccc(CN2C(=O)C3=C(CCN(Cc4ccc(NC(=O)[c-]5cccc5)cc4)C3)N3CCN=C23)c1.[Fe+2].c1cc[cH-]c1 [23a]
[1]; second-set screening
  Cell Viability (% of Control) 2.8 µM: 98 ± 7 % of Control
  Cell Viability (% of Control) 8.3 µM: 104 ± 10 % of Control
  Cell Viability (% of Control) 25 µM: 52 ± 55 % of Control
[2]; second-set screening
  Cell Viability (% of Control) 2.8 µM: 109 ± 10 % of Control
  Cell Viability (% of Control) 8.3 µM: 107 ± 7 % of Control
  Cell Viability (% of Control) 25 µM: 61 ± 20 % of Control

## NCC#Cc1cccc(CN2C(=O)C3=C(CCN(Cc4ccc(NC(=O)c5ccccc5)cc4)C3)N3CCN=C23)c1 [23b]
[1]; second-set screening
  viability at 2.8 µM: 113 ± 15%
  viability at 8.3 µM: 106 ± 5%
  viability at 25 µM: 47 ± 39%
[2]; second-set screening
  viability at 2.8 µM: 117 ± 11%
  viability at 8.3 µM: 108 ± 7%
  viability at 25 µM: 77 ± 6%

## NCC#Cc1cccc(CN2C(=O)C3=C(CCN(Cc4ccc(C(=O)N[c-]5cccc5)cc4)C3)N3CCN=C23)c1.[Fe+2].c1cc[cH-]c1 [33a]
[1]; second-set screening
  Cell Viability (% of Control) 2.8 µM: 102 ± 9 % of Control
  Cell Viability (% of Control) 8.3 µM: 107 ± 9 % of Control
  Cell Viability (% of Control) 25 µM: 4 ± 5 % of Control
[2]; second-set screening
  Cell Viability (% of Control) 2.8 µM: 99 ± 2 % of Control
  Cell Viability (% of Control) 8.3 µM: 93 ± 2 % of Control
  Cell Viability (% of Control) 25 µM: 9 ± 8 % of Control

## NCC#Cc1cccc(CN2C(=O)C3=C(CCN(Cc4ccc(C(=O)Nc5ccccc5)cc4)C3)N3CCN=C23)c1 [33b]
[1]; second-set screening
  viability at 2.8 µM: 102 ± 9%
  viability at 8.3 µM: 109 ± 5%
  viability at 25 µM: 71 ± 32%
[2]; second-set screening
  viability at 2.8 µM: 120 ± 9%
  viability at 8.3 µM: 115 ± 6%
  viability at 25 µM: 80 ± 11%

## NCC#Cc1cccc(CN2C(=O)C3=C(CCN(Cc4ccc(-n5cc(-c6cccc(F)c6)nn5)cc4)C3)N3CCN=C23)c1 [36a]
[1]; second-set screening
  viability at 2.8 µM: 116 ± 8%
  viability at 8.3 µM: 0%
  viability at 25 µM: 0%
[2]; second-set screening
  viability at 2.8 µM: 105 ± 20%
  viability at 8.3 µM: 6 ± 5%
  viability at 25 µM: 0%

## NCC#Cc1cccc(CN2C(=O)C3=C(CCN(Cc4ccc(-n5cc(-c6ccc(F)cc6)nn5)cc4)C3)N3CCN=C23)c1 [36b]
[1]; second-set screening
  viability at 2.8 µM: 116 ± 7%
  viability at 8.3 µM: 0%
  viability at 25 µM: 0%
[2]; second-set screening
  viability at 2.8 µM: 114 ± 7%
  viability at 8.3 µM: 1 ± 1%
  viability at 25 µM: 0%

## NCC#Cc1cccc(CN2C(=O)C3=C(CCN(Cc4ccc(-n5cc(-c6cc(F)cc(F)c6)nn5)cc4)C3)N3CCN=C23)c1 [36c]
[1]; second-set screening
  viability at 2.8 µM: 111 ± 8%
  viability at 8.3 µM: 0%
  viability at 25 µM: 0%
[2]; second-set screening
  viability at 2.8 µM: 111 ± 10%
  viability at 8.3 µM: 5 ± 5%
  viability at 25 µM: 0%
